Tests used:
Format in all cases: in vivo
Myzus persicae [1] = test: Myzus persicae test on cabbage; conditions: cabbage leaves sprayed
Method: (§1) Solvents: 78 parts by weight of acetone
(§2) • 1.5 parts by weight of dimethylformamide Emulsifier: 0.5 part by weight of alkylaryl polyglycol ether
(§3) To produce a suitable preparation of active compound, 1 part by weight of active compound is mixed with the stated amount of solvent and emulsifier, and the concentrate is diluted with emulsifier-containing water to the desired concentration.
Cabbage leaves (Brassica oleracea) which are heavily infested by the green peach aphid (Myzus persicae) are treated by spraying with the active compound preparation of the desired concentration.
(§4) After the desired period of time, the kill in % is determined. 100% means that all of the aphids have been killed; 0% means that none of the aphids have been killed. The kill rates determined are entered into Colby's formula (see above).

Phaedon cochleariae = Phaedon cochleariae larvae test; conditions: cabbage leaves sprayed
Method: as §1, §2, §3
Cabbage leaves (Brassica oleracea) are treated by spraying with the active ingredient formulation of the desired concentration and populated with larvae of the mustard beetle (Phaedon cochleariae) while the leaves are still moist.
After the desired period of time, the kill in % is determined. 100% means that all beetle larvae have been killed; 0% means that none of the beetle larvae have been killed. The kill rates determined are entered into Colby's formula (see above).

Tetranychus urticae = Tetranychus urticae test (OP-resistant/spray treatment); conditions: bean leaf discs sprayed
Method: as §1, §2, §3
Discs of bean leaves (Phaseolus vulgaris) which are infested by all stages of the greenhouse red spider mite (Tetranychus urticae) are sprayed with an active compound preparation of the desired concentration.
After the desired period of time, the effect in % is determined. 100% means that all of the spider mites have been killed; 0% means that none of the spider mites have been killed.

Spodoptera frugiperda = Spodoptera frugiperda larvae test; conditions: cabbage leaves sprayed
Method: as §1, §2, §3
Cabbage leaves (Brassica oleracea) are treated by being sprayed with the preparation of active compound of the desired concentration and are populated with larvae of the armyworm (Spodoptera frugiperda) while the leaves are still moist.
After the desired period of time, the kill in % is determined. 100% means that all caterpillars have been killed; 0% means that none of the caterpillars have been killed. The kill rates determined are entered into Colby's formula (see above).

Myzus persicae [2] = test: Myzus persicae test on bell pepper; conditions: 0.8 g/ha, bell-pepper plants sprayed
Method: Solvent: 7 parts by weight of dimethylformamide
Emulsifier: 2 parts by weight of alkylaryl polyglycol ether
as §3
Bell-pepper plants (Capsicum annuum) which are heavily infested by the green peach aphid (Myzus persicae) are treated by spraying with the active compound preparation of the desired concentration.
as §4

CC1(C)C(C=C(Cl)Cl)C1C(=O)OC(C#N)c1cccc(Oc2ccccc2)c1 (stereo not drawn) [alpha-cypermethrin]
Kill in % after 1d (Myzus persicae [1]; 0.16 g/ha): 30%

CC1(C)C(C=C(Cl)Cl)C1C(=O)OC(C#N)c1cccc(Oc2ccccc2)c1 (stereo not drawn) [cypermethrin]
Kill in % after 1d (Myzus persicae [1]; 0.16 g/ha): 10% | Kill in % after 1d (Myzus persicae [1]; 0.8 g/ha): 20%

Cc1c(COC(=O)C2C(/C=C(\Cl)C(F)(F)F)C2(C)C)cccc1-c1ccccc1 (stereo not drawn) [bifenthrin]
Kill in % after 6d (Myzus persicae [1]; 0.032 g/ha): 0% | Kill in % after 1d (Myzus persicae [1]; 0.16 g/ha): 20% | Kill in % after 2d (Phaedon cochleariae; 4 g/ha): 67% | Kill in % after 2d (Tetranychus urticae; 4 g/ha): 30%

CC1(C)[C@H](C(=O)OC(C#N)c2cccc(Oc3ccccc3)c2)[C@@H]1C=C(Br)Br (stereo partly drawn) [deltamethrin]
Kill in % after 6d (Myzus persicae [1]; 0.032 g/ha): 0% | Kill in % after 2d (Spodoptera frugiperda; 0.8 g/ha): 50%

CC1(C)[C@H](C(=O)O[C@@H](C#N)c2cccc(Oc3ccccc3)c2)[C@@H]1/C=C(\Cl)C(F)(F)F [gamma-cyhalothrin]
Kill in % after 1d (Myzus persicae [1]; 0.16 g/ha): 0% | Kill in % after 2d (Spodoptera frugiperda; 4 g/ha): 67%

CC1(C)C(C=C(Cl)Cl)C1C(=O)OC(C#N)c1ccc(F)c(Oc2ccccc2)c1 (stereo not drawn) [beta-cyfluthrin]
Kill in % after 1d (Myzus persicae [1]; 0.16 g/ha): 40% | Kill in % after 2d (Phaedon cochleariae; 0.8 g/ha): 50% | Kill in % after 2d (Phaedon cochleariae; 4 g/ha): 83%

CC1(C)C(/C=C(\Cl)C(F)(F)F)C1C(=O)OC(C#N)c1cccc(Oc2ccccc2)c1 (stereo not drawn) [lambda-cyhalothrin]
Kill in % after 1d (Myzus persicae [1]; 0.032 g/ha): 0% | Kill in % after 2d (Phaedon cochleariae; 0.16 g/ha): 33% | Kill in % after 2d (Tetranychus urticae; 4 g/ha): 0% | Kill in % after 2d (Spodoptera frugiperda; 4 g/ha): 33%

O=C1C=C(N(CCF)Cc2ccc(Cl)nc2)CO1 [compound (I-4), 4-{[(6-chloropyrid-3-yl)methyl](2-fluoroethyl)amino}furan-2(5H)-one]
Kill in % after 1d (Myzus persicae [1]; 4 g/ha): 30% | Kill in % after 6d (Phaedon cochleariae; 20 g/ha): 0% | Kill in % after 6d (Phaedon cochleariae; 100 g/ha): 0% | Kill in % after 2d (Tetranychus urticae; 100 g/ha): 0% | Kill in % after 2d (Spodoptera frugiperda; 20 g/ha): 0% | Kill in % after 2d (Spodoptera frugiperda; 100 g/ha): 0%

CC1(C)[C@H](C=C(Cl)Cl)[C@H]1C(=O)OCc1c(F)c(F)cc(F)c1F [transfluthrin]
Kill in % after 6d (Myzus persicae [2]): 0%

CN(Cc1cnc(Cl)c(F)c1)C1=CC(=O)OC1 [compound (I-6), 4-{[(6-chloro-5-fluorpyrid-3-yl)methyl](methyl)amino}furan-2(5H)-one]
Kill in % after 2d (Phaedon cochleariae; 4 g/ha): 0% | Kill in % after 2d (Phaedon cochleariae; 100 g/ha): 0% | Kill in % after 6d (Phaedon cochleariae; 100 g/ha): 0% | Kill in % after 2d (Spodoptera frugiperda; 20 g/ha): 0% | Kill in % after 2d (Spodoptera frugiperda; 100 g/ha): 0%

O=C1C=C(N(Cc2ccc(Cl)nc2)CC(F)F)CO1 [compound (I-5), 4-{[(6-chloropyrid-3-yl)methyl](2,2-difluoroethyl)amino}furan-2(5H)-one]
Kill in % after 1d (Myzus persicae [1]; 0.8 g/ha): 10% | Kill in % after 6d (Myzus persicae [1]; 0.8 g/ha): 10% | Kill in % after 2d (Phaedon cochleariae; 20 g/ha): 0% | Kill in % after 6d (Myzus persicae [2]): 45% | Kill in % after 2d (Spodoptera frugiperda; 20 g/ha): 0% | Kill in % after 2d (Spodoptera frugiperda; 100 g/ha): 0%
